Laboratory results published in the supplement of paper PMC4862054.
Several values for one entry are separate records, joined by “and”; a condition that tells them apart may be missing. Equal values may be shown once.

How the values were obtained:
Details in all cases: incubation time: 72 h
BT-474 [1] = test: normalised viability (% of control), CellTiter-Blue; higher = more viable cells (about 100 = DMSO control)
In short: (§1)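 Each value is normalised viability at a single listed concentration of the series. Breast cancer cell lines in 384-well plates were incubated 72 h with compound and read by CellTiter-Blue fluorescence at 560/590 nm, with vehicle set to 100 and a positive kill control to 0 on every plate.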

HCC1937 [2] = test: as above
In short: as §1

CAL-51 [3] = test: as above
In short: as §1

MDA-MB-453 [4] = test: as above
In short: as §1

BT-549 [5] = test: as above
In short: as §1

DU-4475 [6] = test: as above
In short: as §1

MDA-MB-468 = test: drug sensitivity score (DSS), CellTox Green (DSS (AUC-based score)); higher = stronger drug effect (viability inhibition or cytotoxicity); extreme values may be limits of the assay
In short: (§2)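 The area under the fitted dose-response curve was used to calculate the drug sensitivity score. Cells from breast cancer lines were incubated for 72 h in 384-well plates with compound at 5 concentrations spaced 10-fold over a 10,000-fold range specific to each compound. Plates were read for CellTox Green and then CellTiter-Glo, and normalised to 0.1 % DMSO and a positive kill control.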

MCF-10A = test: as above
In short: as §2

BT-474 [7] = test: as above
In short: as §2

HCC1937 [8] = test: as above
In short: as §2

HCC1143 = test: as above
In short: as §2

CAL-51 [9] = test: as above
In short: as §2

Hs578T = test: as above
In short: as §2

MDA-MB-436 = test: as above
In short: as §2

HDQ-P1 = test: as above
In short: as §2

CAL-148 = test: as above
In short: as §2

MFM-223 = test: as above
In short: as §2

MDA-MB-453 [10] = test: as above
In short: as §2

MDA-MB-231 = test: as above
In short: as §2

CAL-120 = test: as above
In short: as §2

CAL-85-1 = test: as above
In short: as §2

BT-549 [11] = test: as above
In short: as §2

DU-4475 [12] = test: as above
In short: as §2

HCC1599 = test: as above
In short: as §2

Row | Compound | normalised viability (BT-474 [1]; 1000 nM) | normalised viability (HCC1937 [2]; 1000 nM) | normalised viability (CAL-51 [3]; 3 nM) | normalised viability (MDA-MB-453 [4]; 3 nM) | normalised viability (BT-549 [5]; 1000 nM) | normalised viability (DU-4475 [6]; 3 nM) | drug sensitivity score (MDA-MB-468) | drug sensitivity score (MCF-10A) | drug sensitivity score (BT-474 [7]) | drug sensitivity score (HCC1937 [8]) | drug sensitivity score (HCC1143) | drug sensitivity score (CAL-51 [9]) | drug sensitivity score (Hs578T) | drug sensitivity score (MDA-MB-436) | drug sensitivity score (HDQ-P1) | drug sensitivity score (CAL-148) | drug sensitivity score (MFM-223) | drug sensitivity score (MDA-MB-453 [10]) | drug sensitivity score (MDA-MB-231) | drug sensitivity score (CAL-120) | further results
1 | CC(=O)O[C@H]1C(=O)[C@@]2(C)[C@H]([C@H](OC(=O)c3ccccc3)[C@]3(O)C[C@H](OC(=O)[C@H](O)[C@@H](NC(=O)c4ccccc4)c4ccccc4)C(C)=C1C3(C)C)[C@]1(OC(C)=O)CO[C@@H]1C[C@@H]2O [Paclitaxel] | 27.7% | 19.7% | 82.9% | 63.2% | 20.4% | 95.5% | 26.9 | 21.4 | 12.7 | 0 | 0 | 22.7 | 20.3 | 7.09 | 0 | 7.75 | 13.7 | 0 | 25.5 | 2.71 | normalised viability (BT-474 [1]; 1 nM): 106%; normalised viability (BT-474 [1]; 100 nM): 25.2%; normalised viability (HCC1937 [2]; 1 nM): 91.1%; normalised viability (HCC1937 [2]; 100 nM): 15.3%; normalised viability (CAL-51 [3]; 0.3 nM): 95.1%; normalised viability (CAL-51 [3]; 10 nM): 57.9%; normalised viability (MDA-MB-453 [4]; 0.3 nM): 87.7%; normalised viability (MDA-MB-453 [4]; 10 nM): 43.5%; normalised viability (BT-549 [5]; 1 nM): 83.7%; normalised viability (BT-549 [5]; 100 nM): 21.1%; normalised viability (DU-4475 [6]; 0.3 nM): 108%; normalised viability (DU-4475 [6]; 10 nM): 64.8%; drug sensitivity score (CAL-85-1): 23.2; drug sensitivity score (BT-549 [11]): 9.38; drug sensitivity score (DU-4475 [12]): 0; drug sensitivity score (HCC1599): 0
2 | CCOc1cc2ncc(C#N)c(Nc3ccc(OCc4ccccn4)c(Cl)c3)c2cc1NC(=O)/C=C/CN(C)C [Neratinib] | 91.2% | 96.3% | 90.5% | 99% | 93.8% | 95.4% | 9.51 | 0 | 4.09 | 0 | 0 | 0 | 0 | 0 | 0 | 0.237 | 0 | 0 | 4.21 | 0 | normalised viability (BT-474 [1]; 1 nM): 105%; normalised viability (BT-474 [1]; 100 nM): 120%; normalised viability (HCC1937 [2]; 1 nM): 80.3%; normalised viability (HCC1937 [2]; 100 nM): 99.5%; normalised viability (CAL-51 [3]; 0.3 nM): 92%; normalised viability (CAL-51 [3]; 10 nM): 93%; normalised viability (MDA-MB-453 [4]; 0.3 nM): 106%; normalised viability (MDA-MB-453 [4]; 10 nM): 88.3%; normalised viability (BT-549 [5]; 1 nM): 93.7%; normalised viability (BT-549 [5]; 100 nM): 82%; normalised viability (DU-4475 [6]; 0.3 nM): 103%; normalised viability (DU-4475 [6]; 10 nM): 101%; drug sensitivity score (CAL-85-1): 3.47; drug sensitivity score (BT-549 [11]): 0; drug sensitivity score (DU-4475 [12]): 0; drug sensitivity score (HCC1599): 0
3 | COc1c(C)cnc(Cn2cnc3c(Cl)nc(N)nc32)c1C [BIIB021] | 22.9% | 25.1% | 103% | 96.5% | 36.5% | 94.8% | 0 | 15.3 | 4.79 | 0 | 0 | 5.48 | 3.62 | 0 | 3.67 | 16 | 0 | 0 | 6.24 | 0 | normalised viability (BT-474 [1]; 10 nM): 104%; normalised viability (BT-474 [1]; 10000 nM): 27.3%; normalised viability (HCC1937 [2]; 10 nM): 83.1%; normalised viability (HCC1937 [2]; 10000 nM): 22.1%; normalised viability (CAL-51 [3]; 30 nM): 102%; normalised viability (CAL-51 [3]; 100 nM): 101%; normalised viability (MDA-MB-453 [4]; 30 nM): 79.5%; normalised viability (MDA-MB-453 [4]; 100 nM): 38.4%; normalised viability (BT-549 [5]; 10 nM): 87.8%; normalised viability (BT-549 [5]; 10000 nM): 31.1%; normalised viability (DU-4475 [6]; 30 nM): 76.1%; normalised viability (DU-4475 [6]; 100 nM): 80.8%; drug sensitivity score (CAL-85-1): 6.72; drug sensitivity score (BT-549 [11]): 0; drug sensitivity score (DU-4475 [12]): 4.2; drug sensitivity score (HCC1599): 0
4 | COc1ccc(C2=N[C@@H](c3ccc(Cl)cc3)[C@@H](c3ccc(Cl)cc3)N2C(=O)N2CCNC(=O)C2)c(OC(C)C)c1 [Nutlin-3] | 114% | 98.7% | 101% | 104% | 98.4% | 85.7% | 0 | 0 | 0 | 2.28 | 0 | 13.1 | 0 | 0 | 0 | 1.15 | 0 | 0 | 0 | 0 | normalised viability (BT-474 [1]; 10 nM): 120%; normalised viability (BT-474 [1]; 10000 nM): 90.3%; normalised viability (HCC1937 [2]; 10 nM): 81.3%; normalised viability (HCC1937 [2]; 10000 nM): 113%; normalised viability (CAL-51 [3]; 30 nM): 98.6%; normalised viability (CAL-51 [3]; 100 nM): 97.5%; normalised viability (MDA-MB-453 [4]; 30 nM): 92%; normalised viability (MDA-MB-453 [4]; 100 nM): 99.8%; normalised viability (BT-549 [5]; 10 nM): 91.3%; normalised viability (BT-549 [5]; 10000 nM): 103%; normalised viability (DU-4475 [6]; 30 nM): 90.3%; normalised viability (DU-4475 [6]; 100 nM): 87.4%; drug sensitivity score (CAL-85-1): 0; drug sensitivity score (BT-549 [11]): 0; drug sensitivity score (DU-4475 [12]): 0; drug sensitivity score (HCC1599): 0
5 | CS(=O)(=O)CCNCc1ccc(-c2ccc3ncnc(Nc4ccc(OCc5cccc(F)c5)c(Cl)c4)c3c2)o1 [Lapatinib] | 37.3% and 43.9% | 91.3% and 113% | 122% and 101% | 100% and 118% | 86.5% and 103% | 104% and 85.5% | 0 | 2.1 | 0 | 2.25 | 0 | 0 | 0 | 0 | 0 | 2.94 | 0 | 1.15 | 1.62 | 0 | normalised viability (BT-474 [1]; 10 nM): 97.6% and 106%; normalised viability (BT-474 [1]; 10000 nM): 8.89% and 18.7%; normalised viability (HCC1937 [2]; 10000 nM): 35.8% and 53.3%; normalised viability (CAL-51 [3]; 30 nM): 117% and 97.8%; normalised viability (CAL-51 [3]; 100 nM): 112% and 102%; normalised viability (MDA-MB-453 [4]; 30 nM): 72.4% and 85.8%; normalised viability (MDA-MB-453 [4]; 100 nM): 59.9% and 59%; normalised viability (BT-549 [5]; 10 nM): 74.6% and 99.6%; normalised viability (BT-549 [5]; 10000 nM): 14.1% and 20.7%; normalised viability (DU-4475 [6]; 30 nM): 97.9% and 96.2%; normalised viability (DU-4475 [6]; 100 nM): 95.9% and 91.3%; drug sensitivity score (CAL-85-1): 0; drug sensitivity score (BT-549 [11]): 0; drug sensitivity score (DU-4475 [12]): 0; drug sensitivity score (HCC1599): 0
